Results on one sequence are retold here after patent publication US11426441B2, “Composition comprising protein phosphatase 1 inhibitory peptide for treating vascular diseases” (BethphaGen Inc., priority 2016, dated 2022).

The test system of assay [1] is monocrotaline (MCT)-induced pulmonary arterial hypertension rats. The assay can be described thus: Monocrotaline-induced pulmonary arterial hypertension in rats. The class given is in vivo, rat. How it is done:
(§1) Vascular smooth muscle cells (VSMCs) were homogenized in a minimal volume of 50 mM Tris-HCl, pH 7.4, supplemented with a broad-spectrum protease inhibitor cocktail (Calbiochem). The proteins were separated by SDS-PAGE and then transferred to polyvinylidene fluoride membranes (Schleicher & Schuell). After blocking with 5% (w/v) non-fat milk for 1 hour and washing with TBST, the membranes were incubated with antibodies against SERCA2a, SERCA2b (21st century biochemical), PCNA (abcam), GAPDH (Sigma-Aldrich), phospho-eNOS, eNOS, phospho-eIF2α, eIF2α (cell signaling), Vimentin, α-SMA, BMPR2 (Santa cruz), phospho-Akt, Akt (cell signaling), phospho-phospholamban (Merck), and Phospholamban (cell signaling). The membranes were then incubated with horseradish peroxidase-conjugated secondary antibodies (Jackson ImmunoResearch, West Grove, Pa., USA) and developed using a chemiluminescent substrate (Dogen). The blots were scanned and quantified using LAS software.
Eleven Sprague-Dawley rats (Damool science, Korea) weighing 250-300 g were administered with 60 mg/kg monocrotaline (MCT) (Sigma Aldrich) via intraperitoneal injection, and three animals of a control group were administered with 0.9% physiological saline. According to the dosing schedule, simultaneously with the administration of MCT, six animals for the […] were administered with ψPLB-SE peptide diluted in 300 μl via respiratory inhalation four times at intervals of one week. Five animals for the control group were administered with control peptide. The rats were sacrificed one week after the administration with last peptide, and then histological analysis and molecular biological experiments were conducted.
In order to indirectly measure the pulmonary artery pressure, right heart catheterization was conducted on the basis of a procedure reported in Nature Protocols in 2008. Rats were anesthetized, followed by tracheal intubation. The rats were placed on a homeothermic plate (AD Instruments, Spechbach, Germany) for the maintenance of body temperature during heart catheterization, and then kept breathing using an artificial respiratory device only for an animal (MiniVent type 845, Hugo Sachs Elektronik, March-Hugstetten, Germany). The chest of the rats was opened, and then high-fidelity 1.4 F micromanometer/Mikro-Tip Pressure catheter (Millar Instruments, Houston, Tex.) was allowed to infiltrate the tricuspid site, to measure the right ventricular end-systolic pressure, right ventricular end-diastolic pressure, left ventricular end-systolic pressure, and left ventricular end-diastolic pressure (RVESP, RVEDP, LVESP, LVEDP). Related values and data were collected and analyzed using the PowerLab data acquisition system (MPVS-Ultra Single Segment Foundation System, AD Instruments) and LabChart 7 for Windows software.
(§2) Pulmonary tissues were taken from animal models, fixed with 4% (w/v) paraformaldehyde for 5 days at room temperature, and then washed with PBS. After embedding the specimens in paraffin and sectioning the tissue blocks into a thickness of 7 μm, the sections were stained with haematoxylin and eosin (Sigma Aldrich) to investigate the vascular thickness and inflammation, and the sections were stained with Masson-trichrome (Sigma Aldrich) to investigate the extent of perivascular fibrosis, and then observed through an optical microscope.
(§3) The pulmonary tissues were obtained from rats and mice, and the cytokine levels in the tissues were quantitatively analyzed using human proinflammatory 10plex Meso Scale Diagnostics plates (MSD; Rockville, Md.).

The subject of assay [2] is balloon-injured rat carotid arteries. In words: Balloon-induced injury of rat carotid artery. It counts as in vivo. An excerpt: The left common carotid artery was injured by an infiltration of 2F Fogarty balloon embolectomy catheter. In brief, the rats were anesthetized with isoflurane gas (70% N2O/30% O2), the left external carotid artery was exposed, and branches thereof were electro-coagulated. A catheter was inserted approximately 1 cm into the external carotid artery via a transverse arteriotomy, and endothelial denudation was achieved by three passes of the catheter along the common carotid artery. After removal of the catheter, the penetrated area was clamped, and 5 μg of the peptides solubilized in 200 μL of phosphate-buffered saline (PBS) was injected. After incubation for 15 minutes, the sealed carotid artery was re-opened to resume blood flow. The rats were allowed to recover for 10 days, unless otherwise stated. For histological analyses, the rats were anesthetized, and the common carotid artery was excised after transcardiac perfusion with heparinized saline containing 3.7% (w/v) formaldehyde. The specimens were embedded in paraffin, and paraffin blocks were sectioned with the Leica RM2255 rotary microtome. Two serial tissue sections (thickness, 4 μm) were obtained from the centre of the common carotid artery and stained with haematoxylin and eosin. The lamina, internal elastic lamina, and external elastic lamina were measured with the National Institutes of Health ImageJ software (version 1.62). The intimal and medial areas were determined by subtracting the laminal area from the internal elastic laminal area and by subtracting the internal elastic laminal area from the external elastic laminal area, respectively. The values from two serial sections per rat were averaged for analysis.
The carotid artery was fixed in 4% (w/v) paraformaldehyde for 48 hours at room temperature and then washed with PBS. After embedding the specimens in paraffin and sectioning the tissue blocks, the sections were treated with hydrogen peroxide to quench endogenous peroxidase activity, followed by boiling in antigen retrieval buffer. […]

Assay [3] deals with monocrotaline (MCT)-induced pulmonary arterial hypertension mice. In words: Monocrotaline-induced pulmonary arterial hypertension in mice. The class given is in vivo, mouse. As to the method:
as §1
As for mice, fifteen C57BL/6 mice (Damool science, Korea) weighing 25-30 g were treated with 600 mg/kg MCT five times a week. Out of the mice, eight animals for a comparison group were administered with ψPLB-SE peptide four times at intervals of one week from day 15 after the administration of MCT. Five animals for a control group were administered with a control peptide. The mice were sacrificed one week after last administration, and then histological analysis and molecular biological experiments were conducted.
as §2, §3
Quantitative RT-PCR was performed using SYBR premix Ex Taq™ (Takara), though which the transcriptional levels of target genes were analyzed. RNA was isolated from pulmonary tissues using trizole (ambion), and synthesized into cDNA. Quantitative RT-PCR conditions were 40 cycles: 10 sec at 94° C., 30 sec at 59° C., and 10 sec at 72° C.

The subject of a further assay is SERCA2a. The assay can be described thus: Aorta ex vivo organ culture, SERCA2a western blotting. It counts as cell-based. The conditions noted are these: ex vivo culture of rat thoracic aorta, injury by scratching. As to the method: A rat thoracic aorta was harvested and incubated in RPMI-1640 medium containing 20 mM HEPES, 2 mM L-glutamine, 100 IU/mL penicillin, and 100 μg/mL streptomycin. The adventitia was removed, and the aorta was cut longitudinally and fixed onto a resin. To investigate the degradation of SERCA2a, tissue fragments were cultured for 7-10 days in RPMI-1640 medium containing 20% (v/v) FCS. The medium was replaced every 48 hours.
as §1
For orientation: A western blot detects proteins with antibodies after separation by electrophoresis.

No end group written: not given here.

For the sequence “RAETIEMPQ (not fully specified) [ψPLB-SE, 9-mer PP1 decoy peptide mimicking phosphorylated PLB; conjugated via GGG linker to cell penetrating peptide dNP2 or TAT]”, the “right ventricular end-systolic pressure” value in assay [1] (MCT 60 mg/kg rats, peptide via respiratory inhalation once a week for 4 weeks, MCT 67.4±6.4, sham 33.7±1.7) is 33.5±5.8. For the same sequence, in assay [1] (rat pulmonary tissue), the “expression degree of BMPR2” value is reported as “restored”; the “fibrosis extent of vascular adventitia (Masson-trichrome staining)” value is listed as “reduced”; the “increase in vascular thickening (hematoxylin and eosin staining)” value is “attenuated”; the “phosphorylation level of eIF2α” value is given as “restored”. For the same sequence, the “proinflammatory cytokines (GM-CSF, TNF-α, IL-17, IL-1β, IL-6, TGF-β) levels” value in assay [1] (rat pulmonary tissue) is listed as “restored to nearly to the normal levels”. Moreover, the “eNOS phosphorylation level (eNOS activity)” value in assay [1] (rat pulmonary tissue proteins) is “increased”. In assay [1] (rat pulmonary tissue, protein quantitative analysis), the “increases in the expression of vimentin and α-SMA” value is “attenuated”. Moreover, in assay [2] (balloon-injured rat carotid artery, peptide administered to the injured site), the “in vivo VSMC proliferation (α-SMA, PCNA immunostaining)” value was “inhibits”. Also, the “neointimal formation (haematoxylin and eosin staining)” value in assay [2] (balloon-injured rat carotid artery, peptide administered to the injured site, compared with control peptide) was “inhibited”. Also, the “reduction of SERCA2a level by balloon angioplasty-mediated injury (immunostaining)” value in assay [2] (carotid artery sections) was “inhibited”. In addition, in assay [3] (mouse pulmonary tissue), the “expression level of SERCA2a” value is reported as “increased”; the “fibrosis extent of vascular adventitia (Masson-trichrome staining)” value is listed as “attenuated”; the “increases in the protein and mRNA expression of TGF-β, Collagen 1, vimentin, and α-SMA” value was “attenuated”; the “proinflammatory cytokines (GM-CSF, TNF-α, IL-17, IL-1β, IL-6, TGF-β) levels” value was “restored to nearly to the normal levels”. Moreover, the “eNOS phosphorylation level (eNOS activity)” value in assay [3] (mouse pulmonary tissue proteins) is listed as “increased”. In assay [3] (mouse pulmonary tissue, MCT 600 mg/kg, peptide via respiratory inhalation once a week for 4 weeks from the second week), the “increase in vascular thickening (hematoxylin and eosin staining)” value was “attenuated”. For the same sequence, in assay [3] (mouse pulmonary tissue, hematoxylin and eosin staining), the “increase in monocyte infiltration” value is “attenuated”. The “mRNA expression levels of TNF-α, IL-17, IL-1β, F4/80, and MCP-1” value in assay [3] (mouse pulmonary tissue, quantitative RT-PCR) is given as “reduced”. Besides, the “injury-dependent reduction of SERCA2a in VSMCs” value in the assay with SERCA2a is “completely inhibited”.
